The target of one data set is MDR1 (P-glycoprotein) (Homo sapiens (Human), UniProt P08183). Description: in vitro. The conditions noted are these: dog, MDCK-MDR1, pH 7.4.
For another data set, the target named is hNav1.5 (Homo sapiens (Human), UniProt Q14524).
Another data set addresses HCN4 (Homo sapiens (Human), UniProt Q9Y3Q4). The experiment in a line: HCN4 current assay using PatchXpress 7000A. The format is cell-based. The following applies: PatchXpress protocol; read-out: PX HCN4 IC50. The protocol:
Example 126A, Using PatchXpress 7000A
Solutions for recording HCN currents were:
The peak inward current measured at the end of the pulse to −110 mV (HCN1 and HCN2) or −130 mV (HCN4) was measured and any leak current subtracted to calculate the HCN current. The HCN current amplitude was measured after each control or compound addition and normalized to the control amplitude (Control A).
All experiments were performed at room temperature (approximately 22° C.).
Each test compound concentration was applied to the cell for seven (7) minutes, at which point the next cumulative concentration was applied.

The target in a further data set is HCN2 (Homo sapiens (Human), UniProt Q9UL51). Description: HCN2 current assay using PatchXpress 7000A. The format is cell-based. The conditions noted are these: PatchXpress protocol; read-out: PX HCN2 IC50. The method, boiled down:
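Automated patch clamp (PatchXpress 7000A) at about 22° C. HCN current taken as leak-subtracted peak inward current at the end of a step to −110 mV, with a return to −30 mV for 8 seconds. Cumulative concentrations applied 7 minutes each; amplitude normalised to control.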

A further data set concerns the target hERG channel (Homo sapiens (Human), UniProt Q12809). Description: hERG assay using IonWorks Quattro. The following applies: IonWorks protocol; read-out: IW hERG IC50. The data set is classed as cell-based. Here is the method:
Example 127A, Using IonWorks Quattro
Solutions for recording hERG currents were:
This was followed by a […] step of is to −30 mV to evoke the hERG tail current. This sequence was repeated 5 times at a frequency of 0.25 Hz (see FIG. 3). Currents were measured from the tail step at the 5th pulse and referenced to the holding current. Compounds were then incubated for 6-7 minutes prior to a second measurement of the hERG signal using an identical pulse train.
(The hERG channel carries a current that helps repolarise heart muscle cells.)

One may read the efflux ratio as the permeability from basolateral to apical divided by that in the opposite direction, in the common usage. As a reminder, the pIC50 is the IC50 on a negative log10 scale, so that one unit is a factor of ten.

The structures appear in SMILES notation. pIC50: −log10 of the molar value. Counter-ions that a name gives are not always drawn.

Chain of HCN4 (Q9Y3Q4 whole entry, species assumed): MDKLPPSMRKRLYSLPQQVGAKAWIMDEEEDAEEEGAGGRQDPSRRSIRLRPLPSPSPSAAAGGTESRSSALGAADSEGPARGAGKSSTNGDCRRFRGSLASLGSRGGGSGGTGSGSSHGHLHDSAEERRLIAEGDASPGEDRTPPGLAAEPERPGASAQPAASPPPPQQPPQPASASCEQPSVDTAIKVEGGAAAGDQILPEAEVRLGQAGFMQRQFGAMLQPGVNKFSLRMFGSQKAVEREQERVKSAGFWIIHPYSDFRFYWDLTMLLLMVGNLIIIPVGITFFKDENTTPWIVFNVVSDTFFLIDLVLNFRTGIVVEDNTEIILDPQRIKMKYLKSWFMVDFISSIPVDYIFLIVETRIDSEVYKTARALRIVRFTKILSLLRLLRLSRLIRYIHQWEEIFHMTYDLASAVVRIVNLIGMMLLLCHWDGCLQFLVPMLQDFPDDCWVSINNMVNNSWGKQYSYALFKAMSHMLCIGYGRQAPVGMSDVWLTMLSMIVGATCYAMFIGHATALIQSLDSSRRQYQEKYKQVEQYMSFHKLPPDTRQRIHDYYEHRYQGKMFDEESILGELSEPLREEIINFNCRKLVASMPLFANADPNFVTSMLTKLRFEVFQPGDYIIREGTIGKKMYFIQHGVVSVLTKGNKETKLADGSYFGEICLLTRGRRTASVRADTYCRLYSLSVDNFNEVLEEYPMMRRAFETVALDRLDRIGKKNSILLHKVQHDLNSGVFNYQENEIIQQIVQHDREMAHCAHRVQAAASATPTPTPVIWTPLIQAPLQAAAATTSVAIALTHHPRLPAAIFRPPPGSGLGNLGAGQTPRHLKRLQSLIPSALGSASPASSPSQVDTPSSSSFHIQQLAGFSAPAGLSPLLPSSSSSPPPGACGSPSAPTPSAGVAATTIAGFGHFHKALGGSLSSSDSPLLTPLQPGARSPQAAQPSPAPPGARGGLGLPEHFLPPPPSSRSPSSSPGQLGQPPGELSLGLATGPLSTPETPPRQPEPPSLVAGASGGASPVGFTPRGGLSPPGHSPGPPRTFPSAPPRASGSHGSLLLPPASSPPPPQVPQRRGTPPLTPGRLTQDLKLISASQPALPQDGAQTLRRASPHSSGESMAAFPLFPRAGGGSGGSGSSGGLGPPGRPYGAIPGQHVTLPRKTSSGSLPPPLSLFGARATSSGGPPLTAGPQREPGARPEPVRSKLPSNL
Chain of hNav1.5 (Q14524 whole entry): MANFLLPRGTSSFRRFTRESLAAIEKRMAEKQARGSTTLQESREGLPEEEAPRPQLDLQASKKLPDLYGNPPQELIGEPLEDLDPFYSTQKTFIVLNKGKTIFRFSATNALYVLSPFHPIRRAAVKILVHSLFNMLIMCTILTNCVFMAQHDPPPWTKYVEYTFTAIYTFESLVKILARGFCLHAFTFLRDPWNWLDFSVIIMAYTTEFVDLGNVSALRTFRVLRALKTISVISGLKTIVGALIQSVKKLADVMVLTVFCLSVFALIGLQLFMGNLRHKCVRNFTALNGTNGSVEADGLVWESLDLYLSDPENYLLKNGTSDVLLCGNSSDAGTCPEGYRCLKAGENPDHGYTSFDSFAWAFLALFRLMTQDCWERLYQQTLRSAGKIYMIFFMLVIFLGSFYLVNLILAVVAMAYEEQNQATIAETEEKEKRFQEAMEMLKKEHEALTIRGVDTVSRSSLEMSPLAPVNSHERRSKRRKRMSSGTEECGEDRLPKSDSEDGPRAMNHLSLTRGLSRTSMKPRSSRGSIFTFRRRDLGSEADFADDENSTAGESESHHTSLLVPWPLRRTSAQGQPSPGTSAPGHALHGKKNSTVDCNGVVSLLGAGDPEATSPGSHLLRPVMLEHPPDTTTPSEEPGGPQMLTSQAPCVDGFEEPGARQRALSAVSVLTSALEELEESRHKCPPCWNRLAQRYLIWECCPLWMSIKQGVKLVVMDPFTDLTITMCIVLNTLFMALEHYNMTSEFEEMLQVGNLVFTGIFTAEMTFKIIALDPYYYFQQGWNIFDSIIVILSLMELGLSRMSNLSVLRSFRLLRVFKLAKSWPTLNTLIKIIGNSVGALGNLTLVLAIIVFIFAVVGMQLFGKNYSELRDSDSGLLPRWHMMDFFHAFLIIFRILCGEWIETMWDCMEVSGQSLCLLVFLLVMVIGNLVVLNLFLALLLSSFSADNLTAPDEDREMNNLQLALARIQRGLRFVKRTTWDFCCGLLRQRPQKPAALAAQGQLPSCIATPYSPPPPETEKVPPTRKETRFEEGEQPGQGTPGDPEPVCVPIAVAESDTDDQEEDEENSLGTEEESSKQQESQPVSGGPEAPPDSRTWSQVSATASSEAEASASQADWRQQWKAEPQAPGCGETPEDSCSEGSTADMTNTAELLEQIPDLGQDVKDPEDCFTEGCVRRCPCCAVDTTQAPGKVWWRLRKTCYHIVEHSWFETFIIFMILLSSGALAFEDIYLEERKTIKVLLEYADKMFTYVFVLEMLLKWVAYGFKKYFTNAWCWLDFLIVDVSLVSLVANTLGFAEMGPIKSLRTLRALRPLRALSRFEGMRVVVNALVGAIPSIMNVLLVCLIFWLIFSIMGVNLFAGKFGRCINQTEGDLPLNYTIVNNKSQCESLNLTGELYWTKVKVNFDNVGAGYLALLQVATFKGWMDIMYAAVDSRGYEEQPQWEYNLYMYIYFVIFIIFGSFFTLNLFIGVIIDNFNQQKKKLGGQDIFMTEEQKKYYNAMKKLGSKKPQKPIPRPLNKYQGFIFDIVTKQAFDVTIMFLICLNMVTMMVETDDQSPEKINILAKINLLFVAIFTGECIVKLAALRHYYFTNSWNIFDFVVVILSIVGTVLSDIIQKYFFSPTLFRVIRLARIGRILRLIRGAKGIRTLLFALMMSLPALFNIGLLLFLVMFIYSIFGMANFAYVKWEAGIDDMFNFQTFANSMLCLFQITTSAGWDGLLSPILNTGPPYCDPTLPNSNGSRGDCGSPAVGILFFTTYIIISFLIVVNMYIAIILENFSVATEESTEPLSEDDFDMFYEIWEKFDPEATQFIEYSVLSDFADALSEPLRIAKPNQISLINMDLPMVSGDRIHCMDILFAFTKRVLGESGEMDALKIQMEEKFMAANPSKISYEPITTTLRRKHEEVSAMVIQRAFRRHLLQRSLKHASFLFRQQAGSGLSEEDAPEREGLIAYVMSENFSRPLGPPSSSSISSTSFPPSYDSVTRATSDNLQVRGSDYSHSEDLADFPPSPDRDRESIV
Chain of HCN2 (Q9UL51 whole entry): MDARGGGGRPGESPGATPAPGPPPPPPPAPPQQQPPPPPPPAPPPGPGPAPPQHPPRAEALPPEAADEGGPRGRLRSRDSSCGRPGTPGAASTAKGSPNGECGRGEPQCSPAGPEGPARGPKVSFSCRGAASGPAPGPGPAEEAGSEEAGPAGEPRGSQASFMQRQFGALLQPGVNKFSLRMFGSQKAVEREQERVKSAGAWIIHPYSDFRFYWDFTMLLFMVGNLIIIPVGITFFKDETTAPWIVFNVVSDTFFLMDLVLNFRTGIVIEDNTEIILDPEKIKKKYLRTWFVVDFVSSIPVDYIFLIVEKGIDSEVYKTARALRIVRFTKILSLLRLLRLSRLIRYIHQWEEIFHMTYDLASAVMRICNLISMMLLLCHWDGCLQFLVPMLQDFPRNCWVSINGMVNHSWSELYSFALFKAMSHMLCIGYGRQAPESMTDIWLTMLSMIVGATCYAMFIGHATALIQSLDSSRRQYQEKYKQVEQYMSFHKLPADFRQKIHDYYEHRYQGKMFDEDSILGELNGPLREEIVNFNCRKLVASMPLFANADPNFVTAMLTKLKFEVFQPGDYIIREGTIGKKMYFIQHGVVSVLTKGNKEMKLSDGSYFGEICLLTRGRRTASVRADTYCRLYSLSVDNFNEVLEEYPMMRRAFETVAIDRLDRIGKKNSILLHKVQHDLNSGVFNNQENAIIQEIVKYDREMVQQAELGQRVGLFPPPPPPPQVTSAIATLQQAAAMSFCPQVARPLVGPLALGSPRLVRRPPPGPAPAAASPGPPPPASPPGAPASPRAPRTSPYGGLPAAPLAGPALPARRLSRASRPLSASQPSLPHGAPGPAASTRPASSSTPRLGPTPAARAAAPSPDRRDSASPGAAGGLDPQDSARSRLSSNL
Experimental for MDR1 (P-glycoprotein): Test compounds were added (10 μM, 0.1% DMSO final, n=2) to donor compartments of the Transwell plate assembly in assay buffer (Hanks balanced salt solution supplemented with 25 mM HEPES, adjusted to pH 7.4) for both apical to basolateral (A>B) and basolateral to apical (B>A) measurements. A parallel series of incubations were performed in the presence of the transporter inhibitor elacridar (5 μM) which was added to both compartments in the transwell plate. Incubations were performed at 37° C., with samples removed from both donor and acceptor chambers at T=0 and 1 hour for recovery assessment and compound analysed by mass spectrometry (LC-MS/MS), including an analytical internal standard.
Apparent permeability (Papp) values were determined from the relationship:
Where V is the volume of each Transwell compartment (apical 125 μL, basolateral 600 μL), and concentrations are the relative MS responses for compound (normalized to internal standard) in the donor chamber before incubation and acceptor chamber at the end of the incubation.
Area=area of cells exposed for drug transfer (0.33 cm2).
Efflux ratios (Papp B>A/Papp A>B) were calculated for each compound from the mean Papp values in each direction. […] The efflux ratios were also calculated in the same way from the runs carried out in the presence of the inhibitor. The net flux is the ratio of the efflux in the absence of inhibitor to that in the presence of inhibitor.
Lucifer Yellow (LY) was added to the apical buffer in all wells to assess viability of the cell layer.
Compound recovery from the wells was determined from MS responses (normalized to internal standard) in donor and acceptor chambers at the end of incubation compared to response in the donor chamber pre-incubation.
Experimental for hNav1.5: Solutions for recording Nav1.5 currents were:
Electrophysiological recordings were made from a human embryonic kidney (HEK) cell line stably expressing the full length hNav1.5. Population patch clamp measurements were made in the perforated patch clamp configuration (100 μg ml^−1 amphotericin) at room temperature (approx. 22° C.) using an IonWorks Quattro from Molecular Devices. […] Currents were first measured under control (pre-compound addition) conditions. […] Currents were measured from the depolarising step at the 15th pulse and referenced to the holding current.

Turning to `Cc1ccc(-c2noc3ccccc23)c([C@@H](N)Cc2ccccn2)c1` [Example 36, (S)-1-[2-(Benzo[d]isoxazol-3-yl)-5-methylphenyl]-2-(pyridine-2-yl)ethan-1-amine hydrochloride], on MDR1 (P-glycoprotein), the efflux ratio at 1 h, 10 μM came to 0.8. In addition, the negative-log IC50 (pIC50) against hNav1.5 is 5.25; on HCN4, less than 4.52; on HCN2, 5.92; on hERG channel, 5.30.

`COCc1ccc2c(-c3ccccc3[C@@H](N)Cc3ccccn3)noc2c1` [Example 39, (S)-1-[2-(6-Methoxymethylbenzo[d]isoxazol-3-yl)phenyl]-2-(pyridine-2-yl)ethan-1-amine]: the efflux ratio at 1 h, 10 μM on MDR1 (P-glycoprotein) stood at 2.7. Further, the negative-log IC50 (pIC50) is 4.56 on hNav1.5, less than 4.52 at HCN4, 5.40 on HCN2 and 5.12 on hERG channel.

`Cc1cccnc1C[C@H](N)c1ccccc1-c1noc2ccccc12` [Example 47, (S)-1-[2-(Benzo[d]isoxazol-3-yl)phenyl]-2-(3-methylpyridine-2-yl)ethan-1-amine hydrochloride]: the negative-log IC50 (pIC50) against hNav1.5 is 5.24; on HCN4 it was less than 4.52; at HCN2, 6.22; at hERG channel it was 5.55.

For the molecule `CC(C)C(c1ccccn1)[C@H](N)c1ccccc1-c1noc2ccccc12` (stereo partly drawn) [Example 48, (S)-1-[2-(Benzo[d]isoxazol-3-yl)phenyl]-3-methyl-2-(pyridine-2-yl)butan-1-amine hydrochloride], the negative-log IC50 (pIC50) on hNav1.5 is 5.28; at HCN4 it was less than 4.52; at HCN2 it was 5.27; at hERG channel, 4.80.

Consider `CC(C)(c1ccccn1)[C@H](N)c1ccccc1-c1noc2ccccc12` [Example 49, (R)-1-[2-(Benzo[d]isoxazol-3-yl)phenyl]-2-methyl-2-(pyridine-2-yl)propane-1-amine hydrochloride], for which the negative logarithm of the IC50 (pIC50) was 5.42 on hNav1.5, 4.65 on HCN4, 5.19 on HCN2 and 5.28 at hERG channel.

As to `COCCNc1cccc(C[C@H](N)c2ccccc2-c2noc3ccccc23)n1` [Example 52, (S)-6-{2-Amino-2-[2-(benzo[d]isoxazol-3-yl)phenyl]ethyl}-N-(2-methoxyethyl)pyridin-2-amine hydrochloride], the negative logarithm of the IC50 (pIC50) against hNav1.5 is 5.80; on HCN4, 5.22; at HCN2 it was 5.80; at hERG channel it was 5.92.

With `Cc1cccc(C[C@H](N)c2ccccc2-c2nn(C)c3ccccc23)n1` [Example 61, (S)-1-[2-(1-Methyl-1H-indazole-3-yl)phenyl]-2-(6-methylpyridine-2-yl)ethan-1-amine hydrochloride], the pIC50 is 5.17 at hNav1.5, less than 4.52 on HCN4, 5.46 at HCN2 and 6.34 on hERG channel.

Turning to `N[C@@H](Cc1cccc(C(F)(F)F)n1)c1ccccc1-c1noc2ccccc12` [Example 62, (S)-1-[2-(Benzo[d]isoxazol-3-yl)phenyl]-2-(6-trifluoromethylpyridin-2-yl)ethan-1-amine hydrochloride], the negative logarithm of the IC50 (pIC50) is 5.42 on hNav1.5, 4.72 at HCN4, 6.15 at HCN2 and 5.49 at hERG channel.

Turning to `CC(C)n1nc(-c2ccccc2[C@@H](N)Cc2cccc(C#N)n2)c2ccccc21` [Example 67, (S)-2-(6-Cyanopyridine-2-yl)-1-[2-(1-isopropyl-1H-indazole-3-yl)phenyl]ethan-1-amine], the negative-log IC50 (pIC50) against hNav1.5 is 5.02; at HCN4 it was 4.71; at HCN2, 5.89; on hERG channel, 5.43.

For `N#Cc1cccnc1C[C@H](N)c1ccccc1-c1noc2ccccc12` [Example 75, (S)-1-[2-(Benzo[d]isoxazol-3-yl)phenyl]-2-(3-cyanopyridin-2-yl)ethan-1-amine], the negative logarithm of the IC50 (pIC50) against hNav1.5 was 5.18; at HCN4 it was 5.18; on HCN2, 5.92; on hERG channel it was 5.82.

For the molecule `N[C@@H](Cc1nc(CCO)ccc1F)c1ccccc1-c1noc2ccccc12` [Example 77, (S)-2-(6-{2-Amino-2-(2-benzo[d]isoxazol-3-yl)phenyl]ethyl}-5-fluoropyridin-2-yl)ethan-1-ol hydrochloride], the pIC50 was 5.19 on hNav1.5, 4.98 on HCN4, 6.05 at HCN2 and less than 4.48 on hERG channel.

For `Cn1cc(-c2cccc(C[C@H](N)c3ccccc3-c3noc4ccccc34)n2)cn1` [Example 90, (S)-1-[2-(Benzo[d]isoxazol-3-yl)phenyl]-2-[6-(1-methyl-1H-pyrazol-4-yl)pyridine-2-yl]ethan-1-amine hydrochloride], the pIC50 at hNav1.5 was 4.97; at HCN4 it was 5.15; at HCN2 it was 5.54; on hERG channel it was 5.39.

Regarding `Cc1ccc(C[C@H](N)c2ccccc2-c2noc3ccccc23)nc1` [Example 92, (S)-1-[2-(Benzo[d]isoxazol-3-yl)phenyl]-2-(5-methylpyridine-2-yl)ethan-1-amine hydrochloride], the pIC50 against hNav1.5 is 5.85; at HCN4, less than 4.52; on HCN2, 5.72; at hERG channel, 5.19.

With `N#Cc1ccc(C[C@H](N)c2ccccc2-c2noc3ccccc23)nc1` [Example 93, (S)-1-[2-(Benzo[d]isoxazol-3-yl)phenyl]-2-(5-cyanopyridine-2-yl)ethan-1-amine hydrochloride], the negative-log IC50 (pIC50) at hNav1.5 is 5.66; on HCN4 it was less than 4.52; on HCN2 it was 5.74; at hERG channel, 5.12.

On to `CCc1cccc(C[C@H](N)c2ccccc2-c2noc3ccccc23)n1` [Example 101, (S)-1-[2-(Benzo[d]isoxazol-3-yl)phenyl]-2-(6-ethylpyridine-2-yl)ethan-1-amine hydrochloride], for which the negative-log IC50 (pIC50) at hNav1.5 was 5.80; on HCN4, 4.88; at HCN2, 6.15; at hERG channel, 5.55.

In the case of `CN(C)C(=O)CCc1cccc(C[C@H](N)c2ccccc2-c2noc3ccccc23)n1` [Example 109, (S)-3-(6-{2-Amino-2-[2-(benzo[d]isoxazol-3-yl)phenyl]ethyl}pyridine-2-yl)-N,N-dimethylpropanamide hydrochloride], the pIC50 is 5.49 against hNav1.5, less than 4.52 on HCN4, 5.62 at HCN2 and 5.37 at hERG channel.

Take `Cc1cccc(C[C@H](N)c2c(F)cccc2-c2noc3ccccc23)n1` [Example 112, (S)-1-[2-(Benzo[d]isoxazol-3-yl)-6-fluorophenyl]-2-(6-methylpyridin-2-yl)ethan-1-amine hydrochloride]: the pIC50 against hNav1.5 is 4.62; at HCN4 it was 5.38; at HCN2, 5.70; on hERG channel, 4.99.

Turning to `N[C@@H](Cc1cc(Br)ccn1)c1ccccc1-c1noc2ccccc12` [Example 117, (S)-1-[2-(Benzo[d]isoxazol-3-yl)phenyl]-2-(4-bromopyridine-2-yl)ethan-1-amine hydrochloride)], the pIC50 was 5.57 on hNav1.5, 4.91 at HCN4, 5.85 on HCN2 and 5.66 on hERG channel.

As for `N[C@@H](Cc1cccc(-c2ncco2)n1)c1ccccc1-c1noc2ccccc12` [Example 118, (S)-1-[2-(Benzo[d]isoxazol-3-yl)phenyl]-2-[6-(oxazol-2-yl)pyridine-2-yl]ethan-1-amine hydrochloride], the pIC50 at hNav1.5 is 5.11; on HCN4, 5.28; on HCN2, 5.77; on hERG channel it was 5.51.

Take `N[C@@H](Cc1cccc(N2CCCC2)n1)c1ccccc1-c1noc2ccccc12` [Example 119, (S)-1-[2-(Benzo[d]isoxazol-3-yl)phenyl]-2-[6-(pyrrolidin-1-yl)pyridine-2-yl]ethan-1-amine hydrochloride]: the negative-log IC50 (pIC50) against hNav1.5 was 5.48; on HCN4 it was 5.68; on HCN2, 6.10; on hERG channel, 5.89.

With `Nc1cccc(C[C@H](N)c2ccccc2-c2noc3ccccc23)n1` [Example 121, (S)-6-{2-Amino-2-[2-(benzo[d]isoxazol-3-yl)phenyl]ethyl}pyridine-2-amine hydrochloride], the negative-log IC50 (pIC50) is 5.80 on hNav1.5, less than 4.52 on HCN4, 5.89 at HCN2 and 5.07 on hERG channel.

In the case of `COC(=O)Nc1cccc(C[C@H](N)c2ccccc2-c2noc3ccccc23)n1` [Example 124, Methyl (S)-(6-{2-Amino-2-[2-(benzo[d]isoxazol-3-yl)phenyl]ethyl}pyridine-2-yl)carbamate hydrochloride], the negative-log IC50 (pIC50) is 5.89 at hNav1.5, less than 4.52 on HCN4, 5.68 at HCN2 and 5.64 on hERG channel.

The values above are taken from US20240190854A1, “PYRIMIDINE OR PYRIDINE DERIVATIVES USEFUL AS HCN2 MODULATORS” (King's College London, priority 2021, published 2024).
